Reference: PubChem BioAssay (NCI)
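1) Cells in 96-well plates. 2) Compound, 48 h, 5 concentrations. 3) Linear interpolation between surrounding doses. 4) Unreached endpoint = highest concentration. The concentration for full growth arrest is given as TGI.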

Columns and labels:
Test in all cases: NCI tumour cell line growth inhibition, 48 h
SF-295 CNS = test system: SF-295 CNS
OVCAR-5 ovarian = test system: OVCAR-5 ovarian
UACC-257 melanoma = test system: UACC-257 melanoma
OVCAR-3 ovarian = test system: OVCAR-3 ovarian
SK-OV-3 ovarian = test system: SK-OV-3 ovarian
NCI-H522 lung = test system: NCI-H522 lung
M14 melanoma = test system: M14 melanoma
MOLT-4 leukemia = test system: MOLT-4 leukemia
TK-10 renal = test system: TK-10 renal
HT29 colon = test system: HT29 colon
EKVX NSCLC = test system: EKVX NSCLC
SK-MEL-5 melanoma = test system: SK-MEL-5 melanoma
RPMI-8226 leukemia = test system: RPMI-8226 leukemia
DU-145 prostate = test system: DU-145 prostate
PC-3 prostate = test system: PC-3 prostate
RXF 393 renal = test system: RXF 393 renal

Measured: TGI

CSc1ccc2c(cc1=O)C(NC(=O)c1ccc(OC(C)=O)cc1)CCc1cc(O)c(O)c(O)c1-2 (stereo unspecified)
44.5 µM: OVCAR-3 ovarian
38.9 µM: UACC-257 melanoma
35.3 µM: SF-295 CNS
44 µM: EKVX NSCLC
30.7 µM: M14 melanoma
37.9 µM: HT29 colon
98.1 µM: SK-OV-3 ovarian
31.5 µM: SK-MEL-5 melanoma
28.8 µM: NCI-H522 lung
78 µM: OVCAR-5 ovarian
28.9 µM: MOLT-4 leukemia
> 100 µM: TK-10 renal

Cc1ccc(CS(=O)(=O)C/N=c2\sc3ccccc3nc2/C=C(\O)c2ccc(Cl)cc2)cc1
> 10 µM: RPMI-8226 leukemia | SF-295 CNS | OVCAR-5 ovarian | UACC-257 melanoma | OVCAR-3 ovarian | DU-145 prostate | SK-OV-3 ovarian | NCI-H522 lung | PC-3 prostate | M14 melanoma | MOLT-4 leukemia | TK-10 renal | HT29 colon | SK-MEL-5 melanoma

NC(=S)N1N=C2c3ccccc3CC[C@H]2[C@@H]1c1cccs1
56.1 µM: NCI-H522 lung
58.1 µM: SF-295 CNS
> 100 µM: RPMI-8226 leukemia | OVCAR-5 ovarian | UACC-257 melanoma | OVCAR-3 ovarian | SK-OV-3 ovarian | TK-10 renal | EKVX NSCLC
73.3 µM: HT29 colon
60.8 µM: M14 melanoma
94.5 µM: MOLT-4 leukemia
83 µM: RXF 393 renal

O=C1c2nn(-c3ccccc3)nc2C(c2ccccc2)N1c1ccccc1 (stereo unspecified)
> 100 µM: RPMI-8226 leukemia | SF-295 CNS | OVCAR-5 ovarian | UACC-257 melanoma | OVCAR-3 ovarian | NCI-H522 lung | M14 melanoma | MOLT-4 leukemia | HT29 colon | EKVX NSCLC | SK-MEL-5 melanoma

O=C1CC(=O)c2c(Cl)sc(Cl)c21
86.2 µM: RXF 393 renal
47.1 µM: NCI-H522 lung
> 100 µM: SF-295 CNS | OVCAR-5 ovarian | UACC-257 melanoma | OVCAR-3 ovarian | DU-145 prostate | SK-OV-3 ovarian | M14 melanoma | MOLT-4 leukemia | TK-10 renal | HT29 colon | EKVX NSCLC | SK-MEL-5 melanoma

CCOc1ccc(N=Nc2ccc3oc(=O)c(C(=O)Nc4ccc(OC)cc4)cc3c2)cc1
84.8 µM: SK-OV-3 ovarian
87.8 µM: NCI-H522 lung
86.7 µM: EKVX NSCLC
44.4 µM: MOLT-4 leukemia
67 µM: OVCAR-3 ovarian
> 100 µM: RPMI-8226 leukemia | SF-295 CNS | OVCAR-5 ovarian | UACC-257 melanoma | TK-10 renal | HT29 colon
38.8 µM: SK-MEL-5 melanoma

NCC(NC(=O)OCc1ccccc1)C(=O)O (stereo unspecified)
> 50 µM: RPMI-8226 leukemia | SF-295 CNS | OVCAR-5 ovarian | UACC-257 melanoma | OVCAR-3 ovarian | SK-OV-3 ovarian | NCI-H522 lung | M14 melanoma | MOLT-4 leukemia | TK-10 renal | HT29 colon | EKVX NSCLC | SK-MEL-5 melanoma

O=c1c2ccccc2nc(-c2ccccc2)n1NC(=S)Nc1ccc(Cl)cc1[N+](=O)[O-]
> 100 µM: RPMI-8226 leukemia | SF-295 CNS | OVCAR-5 ovarian | UACC-257 melanoma | SK-OV-3 ovarian | NCI-H522 lung | M14 melanoma | RXF 393 renal | MOLT-4 leukemia | TK-10 renal | HT29 colon | SK-MEL-5 melanoma

CC1(C)C2CCC3(OCCO3)C1C1OC12 (stereo unspecified)
> 100 µM: RPMI-8226 leukemia | SF-295 CNS | OVCAR-5 ovarian | UACC-257 melanoma | OVCAR-3 ovarian | SK-OV-3 ovarian | NCI-H522 lung | M14 melanoma | RXF 393 renal | MOLT-4 leukemia | TK-10 renal | HT29 colon | EKVX NSCLC | SK-MEL-5 melanoma

CC(C)C(=O)/C=C/c1ccc(Cl)cc1
28 µM: OVCAR-3 ovarian
27.8 µM: SF-295 CNS
> 100 µM: SK-OV-3 ovarian
55.9 µM: MOLT-4 leukemia
21.7 µM: SK-MEL-5 melanoma
67.2 µM: RPMI-8226 leukemia
40.6 µM: UACC-257 melanoma
31.7 µM: HT29 colon
35.4 µM: OVCAR-5 ovarian
35.5 µM: RXF 393 renal
30.4 µM: NCI-H522 lung
33 µM: M14 melanoma

CC(C)c1cccc(C(C)C)c1NC(=O)C(=O)C(C(=O)c1ccc2ccccc2c1)C1OC(=O)c2ccccc21 (stereo unspecified)
> 100 µM: RPMI-8226 leukemia | SF-295 CNS | OVCAR-5 ovarian | UACC-257 melanoma | OVCAR-3 ovarian | SK-OV-3 ovarian | NCI-H522 lung | M14 melanoma | RXF 393 renal | MOLT-4 leukemia | HT29 colon | EKVX NSCLC | SK-MEL-5 melanoma

COc1ccc(N[C@H](CS(=O)c2ccc(C)cc2)C(F)(F)C(F)(F)F)cc1 (stereo partly specified)
32.4 µM: RXF 393 renal
> 100 µM: RPMI-8226 leukemia | SF-295 CNS | OVCAR-5 ovarian | UACC-257 melanoma | OVCAR-3 ovarian | DU-145 prostate | SK-OV-3 ovarian | NCI-H522 lung | M14 melanoma | MOLT-4 leukemia | TK-10 renal | HT29 colon | EKVX NSCLC | SK-MEL-5 melanoma

O=C1C2CCC(C2)C12CC1(c3ccccc3)C(=O)c3ccccc3N1O2 (stereo unspecified)
> 100 µM: RPMI-8226 leukemia | SF-295 CNS | UACC-257 melanoma | SK-OV-3 ovarian | NCI-H522 lung | M14 melanoma | RXF 393 renal | MOLT-4 leukemia | HT29 colon | EKVX NSCLC | SK-MEL-5 melanoma

COc1ccc([N-]/C(=N\n2c(=O)c(C)nn(C)c2=S)N(c2ccc(OC)cc2)c2nn3c(=O)c(C)n[n+](C)c3s2)cc1
> 100 µM: RPMI-8226 leukemia | SF-295 CNS | OVCAR-5 ovarian | UACC-257 melanoma | NCI-H522 lung | M14 melanoma | RXF 393 renal | MOLT-4 leukemia | HT29 colon | EKVX NSCLC | SK-MEL-5 melanoma

CN1CCN(C(=S)N(C(=O)c2ccco2)c2ccccc2)CC1
> 100 µM: RPMI-8226 leukemia | SF-295 CNS | OVCAR-5 ovarian | UACC-257 melanoma | OVCAR-3 ovarian | DU-145 prostate | NCI-H522 lung | M14 melanoma | RXF 393 renal | MOLT-4 leukemia | TK-10 renal | HT29 colon | SK-MEL-5 melanoma

O=c1cc(CC(O)(C(F)(F)Cl)C(F)(F)Cl)[nH]n1-c1ccccc1
> 100 µM: RPMI-8226 leukemia | SF-295 CNS | OVCAR-5 ovarian | UACC-257 melanoma | DU-145 prostate | SK-OV-3 ovarian | M14 melanoma | RXF 393 renal | MOLT-4 leukemia | TK-10 renal | HT29 colon | EKVX NSCLC | SK-MEL-5 melanoma

COc1cc(C(C)c2cc3c(cc2OCCCCOc2cc4c(cc2C(C)c2cc(OC)c(OC)c(OC)c2)OCO4)OCO3)cc(OC)c1OC (stereo unspecified)
91.3 µM: SF-295 CNS
58.2 µM: OVCAR-3 ovarian
> 100 µM: RPMI-8226 leukemia | OVCAR-5 ovarian | UACC-257 melanoma | MOLT-4 leukemia | TK-10 renal | HT29 colon | EKVX NSCLC | SK-MEL-5 melanoma
73.3 µM: RXF 393 renal
91.8 µM: SK-OV-3 ovarian
99.4 µM: M14 melanoma

C=C1CC(Cn2cc(C)c(=O)[nH]c2=O)(c2ccc(-c3ccccc3)cc2)OC1=O (stereo unspecified)
1.66 µM: OVCAR-3 ovarian
1.9 µM: RPMI-8226 leukemia
2.56 µM: SK-MEL-5 melanoma
22.1 µM: EKVX NSCLC
2.76 µM: TK-10 renal
5.75 µM: UACC-257 melanoma
3.59 µM: NCI-H522 lung
5.31 µM: PC-3 prostate
23.3 µM: OVCAR-5 ovarian
6.42 µM: DU-145 prostate
14.2 µM: SF-295 CNS
17.7 µM: SK-OV-3 ovarian
2.42 µM: HT29 colon
2.8 µM: MOLT-4 leukemia

CC(=O)OC1CC2(c3ccccc3)C(=O)c3ccccc3N2O1 (stereo unspecified)
> 100 µM: RPMI-8226 leukemia | SF-295 CNS | UACC-257 melanoma | SK-OV-3 ovarian | NCI-H522 lung | M14 melanoma | RXF 393 renal | MOLT-4 leukemia | HT29 colon | EKVX NSCLC | SK-MEL-5 melanoma

CC(C)[Si](OC1=C(C(=O)N(C)c2ccccc2Cl)CCC1)(C(C)C)C(C)C
32.8 µM: SK-OV-3 ovarian
> 100 µM: MOLT-4 leukemia
31.1 µM: EKVX NSCLC
49.6 µM: RPMI-8226 leukemia
43.4 µM: UACC-257 melanoma
35.7 µM: M14 melanoma
31.2 µM: OVCAR-3 ovarian
39.1 µM: TK-10 renal
28.6 µM: NCI-H522 lung
35.4 µM: RXF 393 renal
29 µM: HT29 colon
27.6 µM: SF-295 CNS
21.6 µM: OVCAR-5 ovarian
44.3 µM: DU-145 prostate
41.2 µM: SK-MEL-5 melanoma

Cc1ccc2[nH]c3[nH]c(=O)[nH]c(=O)c3c2c1
> 100 µM: RPMI-8226 leukemia | SF-295 CNS | OVCAR-5 ovarian | UACC-257 melanoma | OVCAR-3 ovarian | DU-145 prostate | SK-OV-3 ovarian | NCI-H522 lung | M14 melanoma | RXF 393 renal | MOLT-4 leukemia | TK-10 renal | HT29 colon | EKVX NSCLC | SK-MEL-5 melanoma

O=c1c2cc(Br)cc(Br)c2[nH]c(=S)n1-c1ccccc1
> 100 µM: RPMI-8226 leukemia | SF-295 CNS | OVCAR-5 ovarian | UACC-257 melanoma | OVCAR-3 ovarian | SK-OV-3 ovarian | M14 melanoma | TK-10 renal | HT29 colon | EKVX NSCLC | SK-MEL-5 melanoma

C[C@@H](NC(=O)OC1C=CC2(CC1)C(=O)N(C)c1ccccc12)c1cccc2ccccc12 (stereo partly specified)
> 25 µM: RPMI-8226 leukemia | SF-295 CNS | OVCAR-5 ovarian | UACC-257 melanoma | OVCAR-3 ovarian | DU-145 prostate | SK-OV-3 ovarian | NCI-H522 lung | PC-3 prostate | M14 melanoma | MOLT-4 leukemia | TK-10 renal | HT29 colon | EKVX NSCLC | SK-MEL-5 melanoma

COc1ccccc1S(=O)Nc1ccccc1 (stereo unspecified)
> 100 µM: RPMI-8226 leukemia | SF-295 CNS | OVCAR-5 ovarian | UACC-257 melanoma | OVCAR-3 ovarian | DU-145 prostate | NCI-H522 lung | MOLT-4 leukemia | TK-10 renal | HT29 colon | EKVX NSCLC | SK-MEL-5 melanoma

CC12CC[C@H](O)C(C)(C)[C@H]1CC[C@](C)(O)C2COc1ccc2ccc(=O)oc2c1 (stereo partly specified)
> 100 µM: RPMI-8226 leukemia | SF-295 CNS | UACC-257 melanoma | OVCAR-3 ovarian | SK-OV-3 ovarian | NCI-H522 lung | M14 melanoma | RXF 393 renal | MOLT-4 leukemia | TK-10 renal | HT29 colon | EKVX NSCLC

CCOC(=O)c1cccc([N+](=O)[O-])c1N
> 100 µM: RPMI-8226 leukemia | SF-295 CNS | OVCAR-5 ovarian | UACC-257 melanoma | OVCAR-3 ovarian | DU-145 prostate | SK-OV-3 ovarian | NCI-H522 lung | PC-3 prostate | M14 melanoma | MOLT-4 leukemia | TK-10 renal | HT29 colon | EKVX NSCLC | SK-MEL-5 melanoma
